For 19 molecules, IC50 and melting point results are on record in patent US8486939B2, “Pyrimidinyl and 1,3,5-triazinyl benzimidazoles and their use in cancer therapy” (Pathway Therapeutics Inc., priority 2009, dated 2013).

One data set has as its system NZOV9. As to the kind of experiment: Cellular growth inhibition (3H-thymidine incorporation). The format is cell-based. To be noted: Homo sapiens, five days incubation, 3H-thymidine over the last 6 hrs, read-out: Cell IC50* NZOV9. How it is done:
(§1) The compounds were evaluated against two early passage human cell lines NZB5 and NZOV9 (Marshall et al., Oncol. Res. 2004, 14, 297). The cells were grown in ITS medium (α-modified minimal essential medium supplemented insulin, transferrin, selenite, and 5% fetal bovine serum) and grown on 96-well tissue culture plates under an atmosphere of 5% O2, 5% CO2, and 90% N2. Individual wells contained 500-1,000 cells (depending on the growth rate) in a volume of 150 μL. Compounds were added at 10-fold concentration steps to a maximum of 20 μM and plates were incubated for five days, with ^3H-thymidine being added over the last 6 hrs. Cells were harvested and incorporated radioactivity measured. Duplicate samples were analyzed for each compound dose with multiple control samples. Data were fitted by a least-squares method to an exponential of the form y=y0+ae^−bx, where y is the radioactivity (corrected for background and normalized to 100% of the control), x is the […], and y0, a, and b are variables, and the IC50 value defined as the compound concentration reducing ^3H-thymidine levels by 50%.

The test system of the next data set is NZB5. Described as above. To be noted: Homo sapiens, five days incubation, 3H-thymidine over the last 6 hrs, read-out: Cell IC50* NZB5. The data set is classed as cell-based. How it is done:
as §1

The target of the next data set is p110β/p85 (Homo sapiens, UniProt P42338). Kind of data set: Inhibition of isolated enzyme (lipid kinase assay, [γ33P]ATP, TLC). To be noted: recombinant enzyme, 100 μM ATP, 1 hr room temperature, average of two experiments. The data set is classed as biochemical. Here is the method:
(§2) Compounds were evaluated for their ability to inhibit Class I PI 3-kinase enzymes p110δ/p85, p110α/p85, and p110β/p85. Reaction mixtures comprising 0.1 μg of a recombinant enzyme, 10 μg of L-α-phosphatidylinositol, and 2× Lipid Kinase Buffer (40 mM Tris-HCl, pH 7.4, 200 mM NaCl, 1 mM EDTA), which contains either DMSO only as a control or the test compound in DMSO (the final DMSO concentration is 1%), were activated by the addition of an ATP mix (5 mM MgCl2, 100 μM ATP, and 0.1 μL [γ^33P]ATP). Reactions were incubated at room temperature for 1 hr, and then stopped by the addition of 1M HCl. The lipids were then extracted using a two step procedure. Firstly, 200 μL of chloroform/methanol (1:1) was added, the biphasic reactions mixed and centrifuged briefly, and the inorganic phase was removed and discarded. Following this, 80 μL of methanol:HCl (1:1) was added and the same procedure followed. The organic phase (70 μL) was then transferred to a clean 1.6 mL tube and the reactions were dried using a Speedvac, with no heating, for […]. The reactions were spotted onto TLC plates (Merck Ltd) and developed for 1 hr in propanol-1:2 M acetic acid (13:7). The TLC plates were then dried at room temperature and quantified using a phosphorimager (StormImager, Amersham). Nine compound concentrations were used for each test compound to determine its IC50 value. Each experiment was performed twice and the average IC50 value is used herein.

A further data set concerns the target p110α/p85 (Homo sapiens, UniProt P42336). Described as above. The data set is classed as biochemical. To be noted: recombinant enzyme, 100 μM ATP, 1 hr room temperature, average of two experiments. Here is the method: as §2
Another data set has as its target p110δ/p85 (Homo sapiens, UniProt O00329). The data set is described as above. The data set is classed as biochemical. Particulars: recombinant enzyme, 100 μM ATP, 1 hr room temperature, average of two experiments. How it is done: as §2

p110δ/p85, sequence (O00329 whole entry, species assumed): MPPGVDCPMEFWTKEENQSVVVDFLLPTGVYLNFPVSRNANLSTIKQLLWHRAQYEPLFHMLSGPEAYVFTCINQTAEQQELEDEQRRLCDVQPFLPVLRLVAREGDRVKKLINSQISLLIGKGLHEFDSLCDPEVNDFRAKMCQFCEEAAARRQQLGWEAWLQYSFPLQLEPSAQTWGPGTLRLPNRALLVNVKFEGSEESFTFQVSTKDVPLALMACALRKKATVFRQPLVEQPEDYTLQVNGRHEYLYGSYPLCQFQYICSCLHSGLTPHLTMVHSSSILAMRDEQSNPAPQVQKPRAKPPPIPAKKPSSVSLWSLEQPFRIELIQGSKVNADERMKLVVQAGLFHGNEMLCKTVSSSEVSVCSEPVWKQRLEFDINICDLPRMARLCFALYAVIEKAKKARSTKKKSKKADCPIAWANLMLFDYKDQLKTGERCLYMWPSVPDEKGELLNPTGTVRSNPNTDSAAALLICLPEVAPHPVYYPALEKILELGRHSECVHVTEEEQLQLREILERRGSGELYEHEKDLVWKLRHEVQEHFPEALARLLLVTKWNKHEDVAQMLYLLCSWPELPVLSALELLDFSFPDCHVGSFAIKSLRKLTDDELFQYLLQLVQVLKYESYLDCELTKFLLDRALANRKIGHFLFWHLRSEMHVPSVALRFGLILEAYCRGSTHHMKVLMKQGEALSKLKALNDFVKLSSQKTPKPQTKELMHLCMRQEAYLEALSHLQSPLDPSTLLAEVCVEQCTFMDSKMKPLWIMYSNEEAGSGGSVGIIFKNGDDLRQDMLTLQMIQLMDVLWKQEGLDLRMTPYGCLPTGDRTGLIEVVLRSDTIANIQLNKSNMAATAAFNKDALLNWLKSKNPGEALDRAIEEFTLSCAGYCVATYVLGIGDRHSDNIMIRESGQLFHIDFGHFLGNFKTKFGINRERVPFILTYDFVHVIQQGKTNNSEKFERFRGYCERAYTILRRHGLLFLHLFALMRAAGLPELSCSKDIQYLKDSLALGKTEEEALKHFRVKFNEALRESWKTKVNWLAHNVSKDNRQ
p110δ/p85, sequence (P27986 whole entry partner, species assumed): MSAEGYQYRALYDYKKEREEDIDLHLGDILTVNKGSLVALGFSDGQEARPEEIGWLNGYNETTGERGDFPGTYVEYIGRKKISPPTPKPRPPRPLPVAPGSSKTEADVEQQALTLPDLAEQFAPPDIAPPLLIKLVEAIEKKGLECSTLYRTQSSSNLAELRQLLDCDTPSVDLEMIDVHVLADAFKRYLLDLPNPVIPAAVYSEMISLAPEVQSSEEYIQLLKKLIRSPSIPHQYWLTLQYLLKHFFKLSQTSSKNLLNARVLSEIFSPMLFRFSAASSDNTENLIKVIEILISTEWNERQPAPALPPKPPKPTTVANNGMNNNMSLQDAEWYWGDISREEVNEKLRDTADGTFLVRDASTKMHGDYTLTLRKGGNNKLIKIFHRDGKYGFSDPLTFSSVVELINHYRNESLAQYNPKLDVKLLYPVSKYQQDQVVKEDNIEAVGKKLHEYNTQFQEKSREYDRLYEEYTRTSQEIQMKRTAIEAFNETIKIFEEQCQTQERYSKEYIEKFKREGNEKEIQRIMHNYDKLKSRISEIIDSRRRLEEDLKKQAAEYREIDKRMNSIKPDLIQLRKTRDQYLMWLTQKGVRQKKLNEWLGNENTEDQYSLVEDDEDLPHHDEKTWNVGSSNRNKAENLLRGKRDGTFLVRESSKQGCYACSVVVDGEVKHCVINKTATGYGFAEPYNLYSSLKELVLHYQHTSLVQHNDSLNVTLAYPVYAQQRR
p110β/p85, sequence (P42338 whole entry, species assumed): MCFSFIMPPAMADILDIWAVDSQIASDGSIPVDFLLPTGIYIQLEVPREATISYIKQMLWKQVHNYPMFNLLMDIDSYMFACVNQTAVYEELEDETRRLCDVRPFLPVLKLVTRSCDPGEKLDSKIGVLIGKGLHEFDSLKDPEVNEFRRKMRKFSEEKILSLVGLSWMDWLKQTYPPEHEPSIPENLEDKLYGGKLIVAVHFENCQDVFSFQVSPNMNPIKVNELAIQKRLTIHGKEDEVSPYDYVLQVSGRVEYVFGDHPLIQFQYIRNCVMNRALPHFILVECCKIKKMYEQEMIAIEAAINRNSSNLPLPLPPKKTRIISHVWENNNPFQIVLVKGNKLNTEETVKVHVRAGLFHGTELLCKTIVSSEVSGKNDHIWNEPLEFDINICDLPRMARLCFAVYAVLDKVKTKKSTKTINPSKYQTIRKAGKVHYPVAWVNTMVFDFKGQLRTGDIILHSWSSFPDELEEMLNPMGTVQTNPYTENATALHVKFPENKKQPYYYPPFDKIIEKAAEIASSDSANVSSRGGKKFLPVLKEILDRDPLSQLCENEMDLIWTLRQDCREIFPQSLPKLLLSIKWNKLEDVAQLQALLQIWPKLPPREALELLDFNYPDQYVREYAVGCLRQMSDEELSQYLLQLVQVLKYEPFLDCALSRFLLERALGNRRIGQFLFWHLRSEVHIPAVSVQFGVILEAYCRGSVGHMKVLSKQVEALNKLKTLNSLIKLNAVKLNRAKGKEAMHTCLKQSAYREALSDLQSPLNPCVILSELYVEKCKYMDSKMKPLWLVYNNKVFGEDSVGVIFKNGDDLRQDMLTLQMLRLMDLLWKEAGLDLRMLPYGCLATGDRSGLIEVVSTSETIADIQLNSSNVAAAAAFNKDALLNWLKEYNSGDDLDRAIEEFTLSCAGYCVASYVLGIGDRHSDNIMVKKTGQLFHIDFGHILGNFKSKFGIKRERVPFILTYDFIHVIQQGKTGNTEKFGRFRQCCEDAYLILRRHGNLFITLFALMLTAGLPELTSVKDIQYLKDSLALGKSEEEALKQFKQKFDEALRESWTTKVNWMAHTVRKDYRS
p110β/p85, sequence (P27986 whole entry partner, species assumed): as the sequence (P27986 whole entry partner, species assumed) above
p110α/p85, sequence (P42336 whole entry): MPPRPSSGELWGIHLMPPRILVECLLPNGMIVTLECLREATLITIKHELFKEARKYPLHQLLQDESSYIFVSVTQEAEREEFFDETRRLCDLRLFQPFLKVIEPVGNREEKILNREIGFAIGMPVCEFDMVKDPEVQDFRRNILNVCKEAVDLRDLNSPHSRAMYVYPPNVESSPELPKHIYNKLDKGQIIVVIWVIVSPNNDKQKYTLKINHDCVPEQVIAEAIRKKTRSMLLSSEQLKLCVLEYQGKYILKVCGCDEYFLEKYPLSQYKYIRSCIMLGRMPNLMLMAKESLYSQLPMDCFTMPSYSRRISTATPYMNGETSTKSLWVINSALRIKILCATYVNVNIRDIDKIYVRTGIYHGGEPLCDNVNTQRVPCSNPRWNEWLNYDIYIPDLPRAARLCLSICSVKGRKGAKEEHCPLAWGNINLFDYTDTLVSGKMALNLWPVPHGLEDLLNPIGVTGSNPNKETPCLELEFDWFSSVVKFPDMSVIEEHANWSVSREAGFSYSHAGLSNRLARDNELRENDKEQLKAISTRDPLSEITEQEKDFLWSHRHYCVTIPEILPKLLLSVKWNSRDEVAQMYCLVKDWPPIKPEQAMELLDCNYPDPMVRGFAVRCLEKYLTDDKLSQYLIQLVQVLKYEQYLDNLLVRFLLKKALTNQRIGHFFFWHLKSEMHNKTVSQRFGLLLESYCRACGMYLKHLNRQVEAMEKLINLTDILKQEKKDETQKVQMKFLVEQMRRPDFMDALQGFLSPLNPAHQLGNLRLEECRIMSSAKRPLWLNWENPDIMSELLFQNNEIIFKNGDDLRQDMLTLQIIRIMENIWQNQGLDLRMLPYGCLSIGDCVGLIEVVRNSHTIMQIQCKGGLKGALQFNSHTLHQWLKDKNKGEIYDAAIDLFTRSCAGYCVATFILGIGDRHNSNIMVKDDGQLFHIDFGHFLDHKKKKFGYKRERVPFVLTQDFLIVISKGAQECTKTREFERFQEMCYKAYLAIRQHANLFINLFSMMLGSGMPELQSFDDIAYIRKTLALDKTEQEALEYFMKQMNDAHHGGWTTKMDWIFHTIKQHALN
p110α/p85, sequence (P27986 whole entry partner): as the sequence (P27986 whole entry partner, species assumed) above

The IC50 is the midpoint of a concentration-inhibition curve. A word on the melting point: it is the temperature, or range, at which the solid turns liquid. `FC(F)c1nc2ccccc2n1-c1nc(Nc2cccnc2)nc(N2CCOCC2)n1` [Example 1, 4-[2-(difluoromethyl)-1H-benzimidazol-1-yl]-6-(4-morpholinyl)-N-(3-pyridinyl)-1,3,5-triazin-2-amine] returned a melting point of 228 to 230 °C. Besides, in the data set on NZOV9, the IC50 fell in the range of 100 to 1000 nM. For the same molecule, the IC50 with NZB5 lay in the range of 100 to 1000 nM. The IC50 at p110β/p85 is < 100 nM. In addition, the IC50 on p110α/p85 was < 100 nM. For the same molecule, at p110δ/p85, the IC50 is < 100 nM.
Consider `COc1cccc2c1nc(C(F)F)n2-c1nc(Nc2cccnc2)nc(N2CCOCC2)n1` [Example 2, 4-[2-(difluoromethyl)-4-methoxy-1H-benzimidazol-1-yl]-6-(4-morpholinyl)-N-(3-pyridinyl)-1,3,5-triazin-2-amine], for which the melting point was 221 to 223 °C. Further, the IC50 in the data set on NZOV9 is < 100 nM. Also, in the data set with NZB5, the IC50 was < 100 nM. The IC50 at p110β/p85 fell in the range of 100 to 1000 nM. Besides, the IC50 on p110α/p85 was < 100 nM. Further, at p110δ/p85, the IC50 is < 100 nM.
On to `CN(Cc1ccccc1)c1nc(N2CCOCC2)nc(-n2c(C(F)F)nc3ccccc32)n1` [Example 9, N-benzyl-4-[2-(difluoromethyl)-1H-benzimidazol-1-yl]-N-methyl-6-(4-morpholinyl)-1,3,5-triazin-2-amine], for which the melting point was in the range of 147 to 150 °C. Further, in the data set with NZOV9, the IC50 lay within 100 to 1000 nM. Also, on p110β/p85, the IC50 was 100 to 1000 nM. At p110α/p85, the IC50 lay in the range of 1000 to 10000 nM. Moreover, at p110δ/p85, the IC50 was < 100 nM.
For the molecule `FC(F)c1nc2ccccc2n1-c1nc(NCc2ccncc2)nc(N2CCOCC2)n1` [Example 15, 4-[2-(difluoromethyl)-1H-benzimidazol-1-yl]-6-(4-morpholinyl)-N-(4-pyridinylmethyl)-1,3,5-triazin-2-amine], the melting point was 188 to 190 °C. For the same molecule, the IC50 in the data set with NZOV9 is 100 to 1000 nM. Moreover, in the data set on NZB5, the IC50 was 100 to 1000 nM. The 50% inhibitory concentration (IC50) at p110α/p85 was 100 to 1000 nM.
With `FC(F)c1nc2ccccc2n1-c1nc(Nc2ccccn2)nc(N2CCOCC2)n1` [Example 16, 4-[2-(difluoromethyl)-1H-benzimidazol-1-yl]-6-(4-morpholinyl)-N-(2-pyridinyl)-1,3,5-triazin-2-amine], the melting point lay within 230 to 232 °C. Further, in the data set on NZOV9, the IC50 lay in the range of 100 to 1000 nM. Also, the IC50 in the data set with NZB5 lay within 100 to 1000 nM. In addition, the IC50 on p110α/p85 is < 100 nM. Further, the concentration for half-maximal inhibition (IC50) on p110δ/p85 was < 100 nM.
`FC(F)c1nc2ccccc2n1-c1nc(Nc2cnc3ccccc3c2)nc(N2CCOCC2)n1` [Example 18, N-[4-[2-(difluoromethyl)-1H-benzimidazol-1-yl]-6-(4-morpholinyl)-1,3,5-triazin-2-yl]-3-quinolinamine] gave a melting point of 270 to 273 °C. The IC50 in the data set on NZOV9 lay in the range of 100 to 1000 nM. The IC50 in the data set with NZB5 is 100 to 1000 nM. For the same molecule, the IC50 at p110α/p85 lay within 100 to 1000 nM. For the same molecule, the IC50 on p110δ/p85 fell in the range of 100 to 1000 nM.
Take `FC(F)c1nc2ccccc2n1-c1nc(Nc2ncccn2)nc(N2CCOCC2)n1` [Example 19, 4-[2-(difluoromethyl)-1H-benzimidazol-1-yl]-6-(4-morpholinyl)-N-(2-pyrimidinyl)-1,3,5-triazin-2-amine]: the melting point was 261 to 263 °C. The IC50 in the data set on NZOV9 is 100 to 1000 nM. Also, the IC50 with NZB5 is 100 to 1000 nM. Besides, the IC50 on p110α/p85 lay within 100 to 1000 nM.
Turning to `FC(F)c1nc2ccccc2n1-c1nc(Nc2ccncn2)nc(N2CCOCC2)n1` [Example 20, 4-[2-(difluoromethyl)-1H-benzimidazol-1-yl]-6-(4-morpholinyl)-N-(4-pyrimidinyl)-1,3,5-triazin-2-amine], the melting point was 233 to 235 °C. Besides, the IC50 in the data set with NZOV9 was 100 to 1000 nM. Also, the half-inhibitory concentration (IC50) with NZB5 fell in the range of 100 to 1000 nM. The IC50 at p110α/p85 was < 100 nM. Also, the IC50 on p110δ/p85 is < 100 nM.
In the case of `FC(F)c1nc2ccccc2n1-c1nc(Nc2cncnc2)nc(N2CCOCC2)n1` [Example 21, 4-[2-(difluoromethyl)-1H-benzimidazol-1-yl]-6-(4-morpholinyl)-N-(5-pyrimidinyl)-1,3,5-triazin-2-amine], the melting point lay within 290 to 292 °C. Further, the IC50 with NZOV9 fell in the range of 100 to 1000 nM. In addition, the half-maximal inhibitory concentration (IC50) with NZB5 lay within 100 to 1000 nM. Also, the IC50 on p110α/p85 was < 100 nM. Further, at p110δ/p85, the concentration for half-maximal inhibition (IC50) was < 100 nM.
Molecule `FC(F)c1nc2ccccc2n1-c1nc(Nc2cnccn2)nc(N2CCOCC2)n1` [Example 22, 4-[2-(difluoromethyl)-1H-benzimidazol-1-yl]-6-(4-morpholinyl)-N-(2-pyrazinyl)-1,3,5-triazin-2-amine] gave a melting point of 271 to 274 °C. Further, the half-inhibitory concentration (IC50) in the data set on NZOV9 was 100 to 1000 nM. The IC50 in the data set on NZB5 was in the range of 100 to 1000 nM. Also, on p110α/p85, the IC50 was < 100 nM. Moreover, the IC50 on p110δ/p85 was < 100 nM.
`FC(F)c1nc2ccccc2n1-c1nc(Oc2cccnc2)nc(N2CCOCC2)n1` [Example 24, 2-(difluoromethyl)-1-[4-(4-morpholinyl)-6-(3-pyridinyloxy)-1,3,5-triazin-2-yl]-1H-benzimidazole] yielded a melting point of 229 to 231 °C. In the data set with NZOV9, the IC50 fell in the range of 1000 to 10000 nM. The IC50 in the data set on NZB5 was 1000 to 10000 nM. The IC50 at p110α/p85 lay within 100 to 1000 nM.
Regarding `FC(F)c1nc2ccccc2n1-c1nc(Nc2cncnc2)nc(N2CCOCC2)n1` [Example 35, 4-[2-(difluoromethyl)-1H-benzimidazol-1-yl]-6-(4-morpholinyl)-N-(5-pyrimidinyl)-1,3,5-triazin-2-amine], at p110β/p85, the IC50 is 100 to 1000 nM.
With `COc1ncc(Nc2nc(N3CCOCC3)nc(-n3c(C(F)F)nc4c(OC)cccc43)n2)cn1` [Example 40, 4-[2-(difluoromethyl)-4-methoxy-1H-benzimidazol-1-yl]-N-(2-methoxy-5-pyrimidinyl)-6-(4-morpholinyl)-1,3,5-triazin-2-amine], the IC50 in the data set with NZOV9 is 100 to 1000 nM; with NZB5, 100 to 1000 nM; at p110β/p85, 100 to 1000 nM; at p110α/p85, < 100 nM; on p110δ/p85 it was < 100 nM.
Turning to `COc1cccc2c1nc(C(F)F)n2-c1nc(-c2cccnc2)cc(N2CCOCC2)n1` [Example 52, 2-(difluoromethyl)-4-methoxy-1-[4-(4-morpholinyl)-6-(3-pyridinyl)-2-pyrimidinyl]-1H-benzimidazole], the melting point is 208 to 210 °C. The IC50 at p110α/p85 was < 100 nM. Further, the IC50 at p110δ/p85 is < 100 nM.
Turning to `FC(F)c1nc2ccccc2n1-c1nc(-c2cncnc2)cc(N2CCOCC2)n1` [Example 55, 2-[2-(difluoromethyl)-1H-benzimidazol-1-yl]-6-(4-morpholinyl)-4,5′-bipyrimidine], the melting point lay within 209 to 211 °C. At p110α/p85, the IC50 lay in the range of 100 to 1000 nM. For the same molecule, on p110δ/p85, the IC50 fell in the range of 100 to 1000 nM.
Molecule `COc1cccc2c1nc(C(F)F)n2-c1nc(-c2cncnc2)cc(N2CCOCC2)n1` [Example 56, 2-[2-(difluoromethyl)-4-methoxy-1H-benzimidazol-1-yl]-6-(4-morpholinyl)-4,5′-bipyrimidine] came in with a melting point of 222 to 224 °C. The IC50 at p110α/p85 was < 100 nM. The IC50 on p110δ/p85 lay in the range of 100 to 1000 nM.
In the same order, the values of `COc1ncc(-c2cc(N3CCOCC3)nc(-n3c(C(F)F)nc4c(OC)cccc43)n2)cn1` [Example 57, 2-[2-(difluoromethyl)-4-methoxy-1H-benzimidazol-1-yl]-6-(4-morpholinyl)-2′-methoxy-4,5′-bipyrimidine] are 238 to 241 °C, < 100 nM and 100 to 1000 nM.
In the same order, the values of `COc1cccc2c1nc(C(F)F)n2-c1nc(N2CCOCC2)c2ncn(-c3cncnc3)c2n1` [Example 60, 2-[2-(difluoromethyl)-4-methoxy-1H-benzimidazol-1-yl]-6-(4-morpholinyl)-9-(5-pyrimidinyl)-9H-purine] are 248 to 251 °C, < 100 nM and < 100 nM.
Regarding `COc1cccc2c1nc(C(F)F)n2-c1nc(N2CCOCC2)nc(-n2cccn2)n1` [Example 63, 2-(Difluoromethyl)-4-methoxy-1-[4-(4-morpholinyl)-6-(1H-pyrazol-1-yl)-1,3,5-triazin-2-yl]-1H-benzimidazole], the melting point lay in the range of 274 to 277 °C. For the same molecule, the IC50 on p110α/p85 is < 100 nM. Besides, the concentration for half-maximal inhibition (IC50) on p110δ/p85 was < 100 nM.
